Assay results from US20090312310A1 (priority 2006, published 2009).

What was measured:
[1] = test system: human lung cancer-derived cell line NCI-H460 having wild-type p53; experiment: Cell growth inhibition assay (MTT), NCI-H460; assay type: cell-based; details: 72 hours
Method: (§1) An anti-cell test was conducted using two cells (human lung cancer-derived cell line NCI-H460 having wild-type p53 and human colon cancer-derived cell line DLD-1 having mutant p53).
(§2) Cells of the respective cell lines were suspended in a medium (RPMI1640 medium containing 10% fetal bovine serum) and these suspensions were inoculated in amounts of 500 cells/150 μL/well and 1000 cells/150 μL/well, respectively, to a 96-well multiwell plate. A test compound was dissolved in DMSO and this solution was diluted with medium to prepare a sample solution (DMSO concentration: 1% or lower). On the next day of inoculation, medium containing DMSO nonsupplemented with the test compound (hereinafter, referred to as a DMSO dilution, DMSO concentration: 1% or lower) or the sample solution was added in an amount of 50 μL/well. MTT assay was conducted immediately after addition of the sample solution or the DMSO dilution to the cells and after culture of the cells (after addition of the sample solution or the DMSO dilution) at 37° C. for 72 hours in a 5% CO2 atmosphere. The MTT assay was conducted as shown below.
(§3) A 5 mg/mL MTT (3-(4,5-dimethylthiazol-2-yl)-2,5-diphenyltetrazolium bromide, Sigma-Aldrich Co., M-2128) solution was prepared using phosphate buffer solutions (Dulbecco's Phosphate-buffered Salines). This MTT solution was added in an amount of 20 μL/well. Then, the plate was cultured at 37° C. for 4 hours in a 5% CO2 atmosphere. The plate was centrifuged at 1200 rpm for 5 minutes and then the culture supernatant was removed by aspiration using a dispenser. DMSO was added in an amount of 150 μL/well to dissolve generated formazan. […] The absorbance of each well was measured under conditions of OD 540 nm and reference 660 nm using a plate reader (SpectraMax PLUS384, Molecular Devices, CA, USA).
(§4) The OD value measured immediately after addition of the sample solution was defined as S. The OD value measured 72 hours after addition of the sample solution was defined as T. The OD value measured 72 hours after addition of the DMSO dilution was defined as C. […]

[2] = test system: human colon cancer-derived cell line DLD-1 having mutant p53; experiment: Cell growth inhibition assay (MTT), DLD-1; assay type: cell-based; details: DLD-1 (mutant p53), 72 hours
Method: as §1, §2, §3, §4

Mdm2/p53 binding = biological target: T1, Mdm2/p53 binding (Homo sapiens, UniProt Q00987, L33E); experiment: Mdm2/p53 binding assay (HTRF, His-p53 / GST-Mdm2); details: His-p53 (aa 1-132) and GST-Mdm2 (aa 25-108, L33E), 6.25 nM each; 25° C., 1 hour
T1 construct: having Mdm2 amino acids at positions 25 to 108
T1 sequence (Q00987 25-108 L33E, species assumed): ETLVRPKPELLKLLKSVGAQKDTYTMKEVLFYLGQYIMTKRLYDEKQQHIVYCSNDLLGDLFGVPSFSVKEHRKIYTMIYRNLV
Method: Next, a test compound was diluted with protein buffer solution containing 10% DMSO, and this test compound dilution was added in an amount of 4 μL/well to the plate.
These dilutions were added in an amount of 8 μL/well (total reaction solution volume: 20 μl/well). Then, the plate was left at 25° C. for 1 hour.
C (correction factor)=(A−BI)/D
The R value calculated from the well supplemented with His-p53, GST-Mdm2, the test compound, and each antibody was defined as R (sample). The R value calculated from the well supplemented with His-p53, GST-Mdm2, and each antibody but without the test compound was defined as R (control). The R value calculated from the well supplemented with GST-Mdm2, the test compound, and each antibody but without His-p53 was defined as R (background). T/C was calculated from the formula shown below. An IC50 value for Mdm2/p53 binding was calculated by sigmoid fitting using Prism (GraphPad Software).
T/C=(R (sample)−R (background))/(R (control)−R (background))

Compound | GI50 [1] [nM] | GI50 [2] [nM] | IC50 (Mdm2/p53 binding) [nM] | GI50 ([1]; Homo sapiens) [nM] | GI50 ([2]; Homo sapiens) [nM]
CC(C)C1=C(C(=O)N2CCC[C@H]2C(=O)N2CCOCC2)SC2=N[C@@](C)(c3ccc(Cl)nc3)[C@@H](c3ccc(Cl)cc3)N21 (single isomer, unassigned; isomer b) [Example 97 (Isomer B)] | 2810 | > 50000 | 10 | – | –
CC(=O)N(C)[C@@H](C)CN(C)C(=O)[C@@H]1CCCN1C(=O)C1=C(C(C)C)N2C(=N[C@@](C)(c3ccc(Cl)cc3)[C@H]2c2ccc(Cl)cc2)S1 [Example 73, N-{(2S)-2-[Acetyl(methyl)amino]propyl}-1-{[(5R,6S)-5,6-bis(4-chlorophenyl)-3-isopropyl-6-methyl-5,6-dihydroimidazo[2,1-b][1,3]thiazol-2-yl]carbonyl}-N-methyl-L-prolinamide] | – | – | 18 | 1750 | > 50000
CC(C)C1=C(C(=O)N2[C@@H](C)CC[C@H]2C(=O)N(C)C)SC2=N[C@@](C)(c3ccc(Cl)cc3)[C@@H](c3ccc(Cl)cc3)N21 [Example 112, (5S)-1-{[(5R,6S)-5,6-Bis(4-chlorophenyl)-3-isopropyl-6-methyl-5,6-dihydroimidazo[2,1-b][1,3]thiazol-2-yl]carbonyl}-N,N,5-trimethyl-L-prolinamide] | – | – | – | 1380 | 40700
CC(C)C1=C(C(=O)N2[C@H](C)CC[C@H]2C(=O)N2CCN(CCO)[C@H](C)C2)SC2=N[C@@](C)(c3ccc(Cl)nc3)[C@@H](c3ccc(Cl)c(F)c3)N21 [Example 260, 2-{(2R)-4-[(5R)-1-{[(5R,6S)-5-(4-chloro-3-fluorophenyl)-6-(6-chloropyridin-3-yl)-3-isopropyl-6-methyl-5,6-dihydroimidazo[2,1-b][1,3]thiazol-2-yl]carbonyl}-5-methyl-L-prolyl]-2-methylpiperazin-1-yl}ethanol] | – | – | 15 | – | –
